Data as given in paper PMC7255801, “Disease-associated mutations in the human TRPM3 render the channel overactive via two distinct mechanisms” (eLife, 2020).

Legend:
Format in all cases: cell-based
[1] = biological target: T1, human M2 muscarinic receptors co-expressed with hTRPM3_1325 V990M (Homo sapiens, UniProt P08172); experiment: M2 muscarinic receptor inhibition of TRPM3 currents, oocytes, V990M mutant; details: 5 μM ACh, 100 mV
T1 construct: expressed in transfected cells; host or cells: Xenopus laevis oocytes (cRNA injection)
T1 sequence (P08172 1-466): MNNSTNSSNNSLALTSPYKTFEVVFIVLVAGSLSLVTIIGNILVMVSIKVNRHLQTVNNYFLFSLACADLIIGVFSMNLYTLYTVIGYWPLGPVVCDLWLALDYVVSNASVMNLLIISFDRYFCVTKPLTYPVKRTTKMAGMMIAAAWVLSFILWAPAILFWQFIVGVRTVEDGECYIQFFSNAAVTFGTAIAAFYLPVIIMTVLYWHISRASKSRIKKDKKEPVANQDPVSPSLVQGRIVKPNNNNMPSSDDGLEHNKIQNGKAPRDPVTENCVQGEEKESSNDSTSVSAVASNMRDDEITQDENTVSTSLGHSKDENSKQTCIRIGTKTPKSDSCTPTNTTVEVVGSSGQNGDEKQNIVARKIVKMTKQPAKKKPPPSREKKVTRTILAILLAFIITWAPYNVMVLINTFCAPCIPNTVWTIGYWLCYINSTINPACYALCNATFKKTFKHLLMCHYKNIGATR
Protocol: (§1) Xenopus laevis oocytes were prepared as described earlier ([Badheka et al., 2015]). All animal procedures were approved by the Institutional Animal Care and Use Committee at Rutgers New Jersey Medical School. In brief, frogs were anesthetized in 0.25% ethyl 3-aminobenzoate methanesulfonate solution (MS222; Sigma-Aldrich); bags of ovaries were removed surgically from the anesthetized frogs. Individual oocytes were obtained by overnight digestion at 16°C in 0.2–0.3 mg/ml type 1A collagenase (Sigma-Aldrich), dissolved in a solution containing 82.5 mM NaCl, 2 mM KCl, 1 mM MgCl2, and […] HEPES, pH 7.4 (OR2 solution). The next day the collagenase containing solution was discarded and the oocytes were washed multiple times with OR2 solution. The oocytes were maintained in OR2 solution supplemented with 1.8 mM CaCl2, 100 IU/ml penicillin, and 100 μg/ml streptomycin at 16°C. cRNA was transcribed from the linearized human TRPM3 (hTRPM3) cDNA clone ([Grimm et al., 2003]), or its mutants in the pGEMSH vector using the mMessage mMachine kit (Thermo Fisher Scientific). cRNA (40 ng) was microinjected into individual oocytes, using a nanoliter-injector system (Warner Instruments). For combined injection of wild-type and mutant TRPM3 for Figures 4E–G, […] total cRNA was injected in a 1:1 ratio. […]

[2] = biological target: T2, human M2 muscarinic receptors co-expressed with wild-type hTRPM3_1325 (Homo sapiens, UniProt P08172); experiment: M2 muscarinic receptor inhibition of TRPM3 currents, oocytes, wild type channel; details: read-out: Inhibition of TRPM3 currents induced by 50 μM PregS
T2 construct: expressed in transfected cells; host or cells: Xenopus laevis oocytes (cRNA injection)
T2 sequence (P08172 1-466): T1 sequence (P08172 1-466)
Protocol: as §1

hTRPM3α2 V992M = biological target: T3, hTRPM3α2 V992M (Homo sapiens, UniProt Q9HCF6, V1015M); experiment: Intracellular Ca2+ assay (GCaMP6f) in 96-well plates, HEK293 cells, V992M mutant; details: very high basal Ca2+ levels
T3 construct: host or cells: HEK293
T3 sequence (Q9HCF6 1-1709 isoform Q9HCF6-5 V992M): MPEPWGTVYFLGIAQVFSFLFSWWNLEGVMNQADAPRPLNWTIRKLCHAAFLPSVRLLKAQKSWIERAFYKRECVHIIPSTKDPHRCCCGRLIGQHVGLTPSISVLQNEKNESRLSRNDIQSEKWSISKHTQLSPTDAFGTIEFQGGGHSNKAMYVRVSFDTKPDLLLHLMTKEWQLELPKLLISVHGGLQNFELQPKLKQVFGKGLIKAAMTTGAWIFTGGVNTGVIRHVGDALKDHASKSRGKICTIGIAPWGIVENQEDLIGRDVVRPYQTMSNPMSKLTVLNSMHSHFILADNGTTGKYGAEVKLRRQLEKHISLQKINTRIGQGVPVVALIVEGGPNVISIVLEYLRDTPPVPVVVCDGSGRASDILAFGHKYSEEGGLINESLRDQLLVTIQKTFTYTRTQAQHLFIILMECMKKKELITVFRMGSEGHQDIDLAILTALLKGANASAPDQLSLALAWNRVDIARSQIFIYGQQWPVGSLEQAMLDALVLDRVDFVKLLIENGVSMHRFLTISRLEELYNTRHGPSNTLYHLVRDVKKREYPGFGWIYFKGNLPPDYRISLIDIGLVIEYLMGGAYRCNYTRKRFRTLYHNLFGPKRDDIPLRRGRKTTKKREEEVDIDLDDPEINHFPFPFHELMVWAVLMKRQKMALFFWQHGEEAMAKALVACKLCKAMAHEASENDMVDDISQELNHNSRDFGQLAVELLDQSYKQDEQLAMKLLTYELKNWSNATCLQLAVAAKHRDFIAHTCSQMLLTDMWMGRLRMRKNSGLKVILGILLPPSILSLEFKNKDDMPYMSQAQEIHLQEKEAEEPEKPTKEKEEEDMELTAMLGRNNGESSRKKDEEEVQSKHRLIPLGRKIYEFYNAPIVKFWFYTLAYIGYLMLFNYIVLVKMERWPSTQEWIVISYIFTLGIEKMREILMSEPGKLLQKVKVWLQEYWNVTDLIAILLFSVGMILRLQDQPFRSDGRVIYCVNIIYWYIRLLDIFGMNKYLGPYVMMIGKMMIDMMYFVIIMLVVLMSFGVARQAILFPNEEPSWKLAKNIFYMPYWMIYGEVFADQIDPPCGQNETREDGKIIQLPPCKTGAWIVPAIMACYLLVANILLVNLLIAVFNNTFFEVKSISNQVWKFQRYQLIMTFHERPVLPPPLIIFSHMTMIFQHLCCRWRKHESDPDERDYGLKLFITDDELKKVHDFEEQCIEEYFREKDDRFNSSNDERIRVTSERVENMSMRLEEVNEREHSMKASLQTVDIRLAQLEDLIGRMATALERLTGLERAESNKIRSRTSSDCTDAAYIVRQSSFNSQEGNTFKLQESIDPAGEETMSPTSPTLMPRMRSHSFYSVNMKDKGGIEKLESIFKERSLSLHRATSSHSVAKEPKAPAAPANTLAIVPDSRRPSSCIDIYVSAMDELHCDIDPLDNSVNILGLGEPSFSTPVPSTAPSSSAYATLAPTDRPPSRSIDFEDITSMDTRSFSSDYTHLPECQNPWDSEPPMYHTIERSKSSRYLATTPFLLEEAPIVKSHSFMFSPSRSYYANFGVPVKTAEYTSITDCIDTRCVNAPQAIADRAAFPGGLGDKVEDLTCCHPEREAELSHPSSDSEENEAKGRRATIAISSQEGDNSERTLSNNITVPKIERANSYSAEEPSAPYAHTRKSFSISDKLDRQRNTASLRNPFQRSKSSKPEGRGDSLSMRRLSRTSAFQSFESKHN
Protocol: (§2) Intracellular Ca^2+ measurements were performed using a Flexstation-3 96‐well plate reader with rapid well injection (Molecular Devices) as described earlier ([Hughes et al., 2019]) with some modifications. Briefly Human Embryonic Kidney 293 (HEK293) cells were purchased from American Type Culture Collection (ATCC), Manassas, VA, (catalogue number CRL-1573), RRID:CVCL_0045; cell identity was verified by STR analysis by ATCC. HEK293 cells were cultured in MEM supplemented with 10% FBS and 100 IU/ml penicillin plus 100 µg/ml streptomycin in 5% CO2 at 37°C. Additional cell authentication was not performed, but passage number of the cells was monitored, and cells were used up to passage number 25–30 from purchase, when a new batch of cells was thawed with low passage number; cells were tested for the lack of mycoplasma infection. HEK293 cells were transfected with hTRPM3α2-GFP, or its mutants (200 ng) and GCaMP6 (1 μg) using the Effectene reagent (Qiagen). […] GCaMP6 signal was measured at excitation wavelengths 485 nm and fluorescence emission was detected at 525 nm. Sampling interval was 0.86 s and four parallel reads were performed for each condition. […] For measurements at 37°C the MEM medium used to culture the cells was replaced with the measurement solution preheated to 37°C, and the plate was placed in the plate reader warmed to 37°C using its built-in temperature controller.

hTRPM3α2 P1092Q = biological target: T4, hTRPM3α2 P1092Q (Homo sapiens, UniProt Q9HCF6, P1115Q); experiment: Intracellular Ca2+ assay (GCaMP6f) in 96-well plates, HEK293 cells, P1092Q mutant; details: very high basal Ca2+ levels
T4 construct: host or cells: HEK293
T4 sequence (Q9HCF6 1-1709 isoform Q9HCF6-5 P1092Q): as the sequence (Q9HCF6 1-1709 isoform Q9HCF6-5 V992M) above, with M992V, P1092Q counted along it
Protocol: as §2

Compound	Inhibition of TRPM3 currents induced by 50 μM PregS [1]	inhibition at 5 µM [2]	Ca2+ response to agonist at 37°C (hTRPM3α2 V992M)	Ca2+ response to agonist at 37°C (hTRPM3α2 P1092Q)
CC(=O)OCC[N+](C)(C)C [ACh, acetylcholine]	essentially not inhibited	~50%		
pregnenolone sulfate [PregS]			not further increased	not further increased
